Series [1] concerns Rattus norvegicus. Description: In vivo concentration in rat liver exposure 0-8 hour after oral administration 50 mg/kg. The class given is ADME, organism-based. Also noted: dose 50 mg/kg, route oral.
Series [2] is described as follows: In vivo maximum concentration in rat plasma exposure after oral administration 50 mg/kg. Set-up: dose 50 mg/kg, route oral. It is filed as ADME, organism-based.
Series [3] relates to Rattus norvegicus. Nature of the series: In vivo area under curve in rat plasma exposure after oral administration 50 mg/kg. The class given is ADME, organism-based. Also noted: dose 50 mg/kg, route oral.
Series [4] can be described thus: In vivo concentration in rat liver exposure 8 hour after oral administration 50 mg/kg. The class given is ADME, organism-based. Also noted: dose 50 mg/kg, route oral. The note with it: read-out: C.
Series [5] can be described thus: In vivo concentration in rat plasma exposure at 8 hour after oral administration 50 mg/kg. The class given is ADME, organism-based. Also noted: dose 50 mg/kg, route oral. The note with it: read-out: C.
Series [6] is filed under the species Rattus norvegicus. Description: Inhibitory activity against Protease using replicon assay […] at 25 uM concentration. For orientation: A replicon is a self-replicating genome or part of one, used to study replication in cells.
Series [7] deals with Kallikrein-1 (Homo sapiens) (UniProt P06870). Description: Inhibitory activity against kallikrein. The note with it: concentration not given here.
The target of series [8] is Prothrombin (Homo sapiens) (UniProt P00734). Description: Inhibitory activity against thrombin. The note with it: concentration not given here.
Series [9] addresses Serine protease 1 (Homo sapiens) (UniProt P07477). Description: Inhibitory activity against trypsin. The note with it: concentration not given here.
Series [10] has as its target Plasminogen (Rattus norvegicus) (UniProt Q01177). Description: Inhibitory activity against plasmin. The note with it: concentration not given here.
The subject of series [11] is Hepatitis C virus NS3 protease. Description: Cytotoxic activity against Protease in […] Huh-7 cells at 100 uM.
Series [12] has as its system Hepatitis C virus NS3 protease. Nature of the series: Inhibitory activity against Protease using replicon assay […] at 25 uM concentration. The note with it: Rattus norvegicus.
Series [13] concerns Huh-7 (Homo sapiens). Nature of the series: Cytotoxic activity against human hepatoma Huh-7 cells at 100 uM concentration.

These results are taken from ChEMBL document CHEMBL1146701, “Discovery of a novel bicycloproline P2 bearing peptidyl alpha-ketoamide LY514962 as HCV protease inhibitor” (Bioorg Med Chem Lett, 2004).

As a reminder, the Cmax is the highest concentration seen after dosing. The term inhibition denotes the drop in the measured response relative to a control, in per cent.

Sequence of Serine protease 1 (Homo sapiens) (P07477 whole entry): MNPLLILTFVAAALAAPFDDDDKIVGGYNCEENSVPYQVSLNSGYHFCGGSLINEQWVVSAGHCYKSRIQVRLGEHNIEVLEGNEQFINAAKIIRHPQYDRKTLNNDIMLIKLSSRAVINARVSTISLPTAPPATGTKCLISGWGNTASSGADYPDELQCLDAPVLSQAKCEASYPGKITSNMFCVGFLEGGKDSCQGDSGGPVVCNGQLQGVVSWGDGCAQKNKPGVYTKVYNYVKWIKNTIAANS
Sequence of Kallikrein-1 (Homo sapiens) (P06870 25-262 limits assumed): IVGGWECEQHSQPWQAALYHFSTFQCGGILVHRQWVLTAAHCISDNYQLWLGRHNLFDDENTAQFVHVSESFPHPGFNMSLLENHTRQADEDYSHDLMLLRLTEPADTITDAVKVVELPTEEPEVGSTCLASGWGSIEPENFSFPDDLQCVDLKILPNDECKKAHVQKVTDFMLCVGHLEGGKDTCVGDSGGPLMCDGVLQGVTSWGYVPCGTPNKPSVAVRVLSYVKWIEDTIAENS
Sequence of Plasminogen (Rattus norvegicus) (Q01177 97-581 limits assumed): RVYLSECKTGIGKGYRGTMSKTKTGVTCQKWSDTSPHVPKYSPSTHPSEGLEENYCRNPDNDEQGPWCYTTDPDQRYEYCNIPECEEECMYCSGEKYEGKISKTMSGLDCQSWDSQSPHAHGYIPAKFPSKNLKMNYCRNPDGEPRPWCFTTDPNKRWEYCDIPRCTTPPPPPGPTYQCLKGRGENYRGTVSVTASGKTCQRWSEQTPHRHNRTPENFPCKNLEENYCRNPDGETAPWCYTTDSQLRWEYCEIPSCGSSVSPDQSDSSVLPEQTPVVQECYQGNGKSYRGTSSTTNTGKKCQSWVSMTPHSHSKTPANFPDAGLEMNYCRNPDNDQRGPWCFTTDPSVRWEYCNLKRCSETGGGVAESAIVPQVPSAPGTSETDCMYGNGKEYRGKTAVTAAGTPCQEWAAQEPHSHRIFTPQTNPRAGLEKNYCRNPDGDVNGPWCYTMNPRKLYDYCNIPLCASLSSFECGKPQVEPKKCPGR
Sequence of Plasminogen (Rattus norvegicus) (Q01177 582-812 limits assumed): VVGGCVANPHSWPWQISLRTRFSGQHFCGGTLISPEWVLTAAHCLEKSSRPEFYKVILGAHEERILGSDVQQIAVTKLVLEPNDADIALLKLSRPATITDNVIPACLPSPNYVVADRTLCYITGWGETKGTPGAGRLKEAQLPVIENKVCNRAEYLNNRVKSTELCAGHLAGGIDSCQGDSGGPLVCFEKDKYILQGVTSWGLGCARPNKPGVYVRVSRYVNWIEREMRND

Turning to `CCCC(NC(=O)[C@@H]1[C@H]2CCC[C@H]2CN1C(=O)[C@@H](NC(=O)[C@@H](NC(=O)c1cnccn1)C(C)C)C(C)C)C(=O)C(=O)NC1CC1` (stereo not given in full), the Caverage in series [1] came to 6290 nM. This molecule had a maximum concentration (Cmax) in [2] of 2250 ng/mL. In series [3], this molecule came in with an AUC of 2.86 µg/h/mL. Also, the results for the concentration at 8 h in series [4] and in series [5] were 500 nM and 10 ng/mL, respectively. In addition, the inhibition in [6] came out at 93%; in [7], 0%; in series [8], 12%; in series [9], 0%; in [10], 5%.
`CCCC(NC(=O)[C@@H]1[C@H]2CCC[C@H]2CN1C(=O)[C@@H](NC(=O)[C@@H](NC(=O)c1cnccn1)C(C)C)C(C)C)C(=O)C(=O)N[C@@H](C)c1ccccc1` (stereo not given in full): in [6], the inhibition amounted to 97%.
Take `CCCC(NC(=O)[C@@H]1[C@H]2CC[C@H](F)[C@H]2CN1C(=O)[C@@H](NC(=O)[C@@H](NC(=O)c1cnccn1)C(C)C)C(C)C)C(=O)C(=O)N[C@@H](C)c1ccccc1` (stereo not given in full): the inhibition was found to be 33% in series [11] and 97% in series [12].
As for `CCCC(NC(=O)[C@@H]1[C@H]2CC=C[C@H]2CN1C(=O)[C@@H](NC(=O)[C@@H](NC(=O)c1cnccn1)C(C)C)C(C)C)C(=O)C(=O)N[C@@H](C)CC` (stereo not given in full), the inhibition in [12] stood at 91%.
With `CCCC(NC(=O)[C@@H]1[C@H]2CC[C@H](F)[C@H]2CN1C(=O)[C@@H](NC(=O)[C@@H](NC(=O)c1cnccn1)C(C)C)C(C)C)C(=O)C(=O)NC1CC1` (stereo not given in full), the inhibition in series [12] stood at 84%.
Same read-out and setting: the figure for `CCCC(NC(=O)[C@@H]1[C@H]2CC[C@H](F)[C@H]2CN1C(=O)[C@@H](NC(=O)[C@@H](NC(=O)c1cnccn1)C(C)C)C(C)C)C(=O)C(=O)N[C@@H](Cc1ccccc1)C(=O)O` (stereo not given in full) is -8%; for `CCCC(NC(=O)[C@@H]1[C@H]2CCC(F)(F)[C@H]2CN1C(=O)[C@@H](NC(=O)[C@@H](NC(=O)c1cnccn1)C(C)C)C(C)C)C(=O)C(=O)NC1CC1` (stereo not given in full) it is 64%.
Regarding `CCCC(NC(=O)[C@@H]1[C@H]2CC[C@@H](OCOC)C2CN1C(=O)[C@@H](NC(=O)[C@@H](NC(=O)c1cnccn1)C(C)C)C(C)C)C(=O)C(=O)N[C@@H](C)c1ccccc1` (stereo not given in full), in series [12], the inhibition was found to be 98%.
Turning to `CCCC(NC(=O)[C@@H]1[C@H]2CC=C[C@H]2CN1C(=O)[C@@H](NC(=O)[C@@H](NC(=O)c1cnccn1)C(C)C)C(C)C)C(=O)C(=O)N[C@@H](C)c1ccccc1` (stereo not given in full), the inhibition was 33% in series [13] and 97% in series [12].
